Legend:
[1] = system: human breast cancer cells MX-1; assay: Effect on the growth of cultured human breast cancer cells MX-1; format: cell-based; conditions: 100 μg/ml, 48 hours, read-out: Growth inhibition rate
Description: (§1) Human breast cancer cells MX-1 and mouse leukemia cells L1210 were respectively suspended at a cell concentration of 10^5 /ml in Eagle's medium containing 10% calf serum and test substances. The cells were cultured at 37° C. under 5% CO2 for 48 hours. Then the number of viable cells was counted after staining with Tripan Blue. [formula]

[2] = system: mouse leukemia cells L1210; assay: Effect on the growth of cultured mouse leukemia cells L1210; format: cell-based; conditions: 100 μg/ml, 48 hours, read-out: Growth inhibition rate
Description: as §1

leukemia cells P388 = assay: Effect on leukemia cells P388 bearing mice; format: in vivo, mouse (BDF1); conditions: 0.5 mg/kg; control 100 ± 5
Description: 10^5 of leukemia cells P388 were transplanted intraperitoneally to a group of 5 BDF1 male mice. The human leucocyte pepsin-like enzyme was injected intravenously into the mice twice a day beginning on the next day until the animals died. The average life span was calculated and expressed as a percentage of control. [formula]

How did the inhibition at 100 µg/mL [1] turn out when `CO[C@@]12[C@H](COC(N)=O)C3=C(C(=O)C(C)=C(N)C3=O)N1C[C@@H]1N[C@@H]12` [Mitomycin C] was run?
The inhibition at 100 µg/mL was 48%.

What about the inhibition at 100 µg/mL [2] of the same compound?
Its inhibition at 100 µg/mL is 61%.

What about the “Average life span (percentage of control)” value (leukemia cells P388) of the same compound?
The value was 135 ± 16%.

Source: US4591504A, “Human leucocyte pepsin-like enzyme as a therapeutic agent for treating allergic disorders and immune complex diseases” (Mochida Pharmaceutical Co., Ltd., priority 1982, dated 1986)
